Here are results for 14 molecules from patent US10450309B2, “Aryl sulfonamides as BLT1 antagonists” (Merck Sharp & Dohme Corp., priority 2015, dated 2019).

For the assay, the target named is T1, human BLT1 receptor (Homo sapiens, UniProt Q15722).
T1 construct: expressed in transfected cells; host or cells: HEK293
T1 sequence (Q15722 whole entry): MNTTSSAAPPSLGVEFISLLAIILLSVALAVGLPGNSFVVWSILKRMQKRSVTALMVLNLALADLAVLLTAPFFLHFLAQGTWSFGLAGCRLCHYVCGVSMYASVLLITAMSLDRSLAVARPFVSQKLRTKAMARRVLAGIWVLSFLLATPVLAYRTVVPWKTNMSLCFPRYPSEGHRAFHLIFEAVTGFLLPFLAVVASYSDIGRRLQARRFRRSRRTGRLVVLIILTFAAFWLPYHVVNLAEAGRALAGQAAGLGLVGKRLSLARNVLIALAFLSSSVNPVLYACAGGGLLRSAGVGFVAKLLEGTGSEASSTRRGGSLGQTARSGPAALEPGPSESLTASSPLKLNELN
In words: BLT-1 cAMP Assay. In kind it is cell-based. The note with it: antagonist mode; HEK293 cells recombinantly expressing human BLT1; forskolin 4 μM and LTB4 2 nM. The method, then: The ability of compounds to antagonize the human BLT1 receptor was determined using a kit to measure changes in intracellular cyclic AMP levels (cAMP dynamic assay kit, Cisbio Cat. No. 62AM4PEC). HEK293 cells recombinantly expressing human BLT1, previously frozen in Recovery Medium (Life Technologies, Cat. No. 12648-010) were thawed and diluted into assay medium (HBSS (Hyclone SH 30268.01), 20 mM HEPES (Gibco 15630-106), 800 μM IBMX (Sigma 15879), 0.1% DTPA BSA (Perkin Elmer CR84-100)). The cell suspension was centrifuged at 200×g for 10 min and then resuspended in fresh assay medium to a density of 2.5×10^5 cells/mL. A Labcyte Echo 550 acoustic dispenser was used to transfer 25 nL of test compound dissolved in DMSO into the wells of a dry 384-well plate (Greiner 784075). All subsequent liquid additions were performed using a BIORAPTR (FRD; Beckman Coulter). Next, 5 μL of cell suspension was added and incubated for 20 min. at 37° C. and 5% CO2 in a humidified plastic tray. To test for agonist activity 5 μL of assay buffer containing forskolin (Sigma F-6886. 4 μM for BLT1) was added and incubated for 30 minutes at 37° C. and 5% CO2 in a humidified plastic tray. To test for antagonist activity 5 μL of assay buffer containing forskolin (Sigma F-6886. 4 μM for BLT1) and either LTB4 (Sigma Aldrich L0517; 2 nM BLT1) was added and incubated for 30 minutes at 37° C. and 5% CO2 in a humidified plastic tray.
The levels of cAMP were detected using the CisBio kit following the manufacturer's instructions: cAMP-d2 vial was reconstituted with distilled water and then diluted accordingly with conjugate & lysis buffer. 5 μL of cAMP-d2 working solution was added to all of the wells of the assay plate. cAMP-Cryptate vial was reconstituted with distilled water and then diluted accordingly with conjugate & lysis buffer. 5 μL of cAMP-Cryptate working solution were added to the assay plate. The assay plate was shaken for 3 minutes and incubated at room temperature for 45 minutes, then read on Perkin Elmer Envision. cAMP standard curve and fit data were plotted using a 4 parameter dose response curve fitting algorithm to fit curve. A 4-parameter curve fit (Max, min, log EC50 and slope) was used to transform fluorescent 665 nm/615 nm ratio signal to cAMP concentration. After normalization to treated and untreated controls, the percent effect of signal at each compound concentration was calculated. The plot of percent effect versus the log of compound concentration was fit with a 4-parameter concentration response equation to calculate EC50 values. Compound concentrations tested were 10 000, 3 333, 1 111, 370.4, 123.4, 41.2, 13.7, 4.6, 1.5 and 0.5 nM with 0.25% residual DMSO.
As for `O=S(=O)(Nc1ccccc1-c1ccc2c(c1)OC[C@@H](Cc1ccc(-c3nccs3)cn1)[C@@H]2O)C(F)(F)F` (single isomer, unassigned) [Example 11, 1,1,1-Trifluoro-N-(2-((3,4-trans)-4-hydroxy-3-((5-(thiazol-2-yl)pyridin-2-yl)methyl)chroman-7-yl)phenyl)methanesulfonamide], the EC50 (commonly the midpoint of the concentration-response curve) is 16 nM.
For `Cn1nccc1-c1ccc(C[C@@H]2COc3cc(-c4ccccc4NS(=O)(=O)C(F)(F)F)ccc3[C@H]2O)nc1` (single isomer, unassigned) [Example 5, 1,1,1-Trifluoro-N-(2-((3,4-trans)-4-hydroxy-3-((5-(1-methyl-1H-pyrazol-5-yl)pyridin-2-yl)methyl)chroman-7-yl)phenyl)methanesulfonamide], the EC50 worked out at 294 nM.
As to `O=S(=O)(Nc1ccccc1-c1ccc2c(c1)OC[C@@H](Cc1ccc(-c3cncs3)cn1)[C@@H]2O)C(F)(F)F` (single isomer, unassigned) [Example 1, 1,1,1-Trifluoro-N-(2-((3R,4S or 3S,4R)-4-hydroxy-3-((5-(thiazol-5-yl)pyridin-2-yl)methyl)chroman-7-yl)phenyl)methanesulfonamide], the EC50 was 82 nM.
Take `Cn1cc(-c2ccc(C[C@@H]3COc4cc(-c5ccccc5NS(=O)(=O)C(F)(F)F)ccc4[C@H]3O)nc2)cn1` (single isomer, unassigned) [Example 4, 1,1,1-Trifluoro-N-(2-((3R,4S or 3S,4R)-4-hydroxy-3-((5-(1-methyl-1H-pyrazol-4-yl)pyridin-2-yl)methyl)chroman-7-yl)phenyl)methanesulfonamide]: the EC50 is 140 nM.
Take `O=S(=O)(Nc1ccc(F)cc1-c1ccc2c(c1)OC[C@H](Cc1ccc(-c3cncs3)cn1)[C@H]2O)C(F)(F)F` (racemic) [Example 8, 1,1,1-trifluoro-N-{4-fluoro-2-[(rac-trans) 4-hydroxy-3-{[5-(1,3-thiazol-5-yl)pyridin-2-yl]methyl}-3,4-dihydro-2H-chromen-7-yl]phenyl}methanesulfonamide]: the EC50 worked out at 24 nM.
For `O=S(=O)(Nc1ccccc1-c1ccc2c(c1)OC[C@H](Cc1ccc(-c3cncs3)cn1)[C@H]2O)C(F)(F)F` (single isomer, unassigned) [Example 2, 1,1,1-Trifluoro-N-(2-((3S,4R or 3R,4S)-4-hydroxy-3-((5-(thiazol-5-yl)pyridin-2-yl)methyl)chroman-7-yl)phenyl)methanesulfonamide], the EC50 was 8 nM.
To `Cn1cc(-c2ccc(C[C@H]3COc4cc(-c5ccccc5NS(=O)(=O)C(F)(F)F)ccc4[C@@H]3O)nc2)cn1` (single isomer, unassigned) [Example 3, 1,1,1-Trifluoro-N-(2-((3S,4R or 3R,4S)-4-hydroxy-3-((5-(1-methyl-1H-pyrazol-4-yl)pyridin-2-yl)methyl)chroman-7-yl)phenyl)methanesulfonamide] belongs 5 nM; to `O=S(=O)(Nc1ccccc1-c1ccc2c(c1)OC[C@@H](Cc1ccc(-c3cscn3)cn1)[C@@H]2O)C(F)(F)F` (single isomer, unassigned) [Example 12, 1,1,1-Trifluoro-N-(2-((3,4-trans)-4-hydroxy-3-((5-(thiazol-4-yl)pyridin-2-yl)methyl)chroman-7-yl)phenyl)methanesulfonamide], 4 nM.
For `O=S(=O)(Nc1ccccc1-c1ccc2c(c1)OC[C@@H](Cc1ccc(-c3cscn3)cn1)[C@@H]2O)C(F)(F)F` (single isomer, unassigned) [Example 9, 1,1,1-Trifluoro-N-(2-((3,4-trans)-4-hydroxy-3-((5-(thiazol-4-yl)pyridin-2-yl)methyl)chroman-7-yl)phenyl)methanesulfonamide], the EC50 is 107 nM.
“1,1,1-Trifluoro-N-(2-((3S,4R or 3R,4S)-4-hydroxy-3-((5-(5-methylthiazol-2-yl)pyridin-2-yl)methyl)chroman-7-yl)phenyl)methanesulfonamide [Example 7]”: the concentration for a half-maximal effect (EC50) stood at 4 nM.
The figure for `O=S(=O)(Nc1ccc(F)cc1-c1ccc2c(c1)OC[C@H](Cc1ccc(-c3cncs3)cn1)[C@H]2O)C(F)(F)F` (single isomer, unassigned) [Example 13, 1,1,1-trifluoro-N-{4-fluoro-2-[(3S,4R or 3R,4S)-4-hydroxy-3-{[5-(1,3-thiazol-5-yl)pyridin-2-yl]methyl}-3,4-dihydro-2H-chromen-7-yl]phenyl}methane-sulfonamide] is 4 nM; for `O=S(=O)(Nc1ccc(F)cc1-c1ccc2c(c1)OC[C@@H](Cc1ccc(-c3cncs3)cn1)[C@@H]2O)C(F)(F)F` (single isomer, unassigned) [Example 14, 1,1,1-trifluoro-N-{4-fluoro-2-[(3R,4S or 3S,4R)-4-hydroxy-3-{[5-(1,3-thiazol-5-yl)pyridin-2-yl]methyl}-3,4-dihydro-2H-chromen-7-yl]phenyl}methane-sulfonamide] it is 31 nM; for `O=S(=O)(Nc1ccccc1-c1ccc2c(c1)OC[C@@H](Cc1ccc(-c3nccs3)cn1)[C@@H]2O)C(F)(F)F` (single isomer, unassigned) [Example 10, 1,1,1-Trifluoro-N-(2-((3,4-trans)-4-hydroxy-3-((5-(thiazol-2-yl)pyridin-2-yl)methyl)chroman-7-yl)phenyl)methanesulfonamide] it is 20 nM.
Consider “1,1,1-Trifluoro-N-(2-((3R,4S or 3S,4R)-4-hydroxy-3-((5-(5-methylthiazol-2-yl)pyridin-2-yl)methyl)chroman-7-yl)phenyl)methanesulfonamide [Example 6]”, for which the EC50 was 187 nM.
